Patent US20010044445A1, “AZOLE INHIBITORS OF CYTOKINE PRODUCTION” (priority 1999, published 2001)

How the values were obtained:
[1] = system: Human peripheral blood mononuclear cells; assay: Human Concanavalin-A Proliferation Assay (Con HU Assay); format: cell-based; conditions: Homo sapiens, PBMC, concanavalin-A stimulated human PBMC; for inhibition at 10 µM / inhibition at 100 µM / inhibition at 1 µM: 72 h, 3 days, read-out: % Inhibition of proliferation (at concentrations of 1,10, or 100 μm); for inhibition at 10 µM: concentration 10 μm (in parentheses in the cell); for IC50: tritiated thymidine; for inhibition at 100 µM: concentration 100 μm (in parentheses in the cell); for inhibition at 1 µM: concentration 1 μm (in parentheses in the cell)
Summary of the method: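 Histopaque-isolated human PBMC (50,000/well) were pre-incubated 15 min with compounds, then stimulated with concanavalin-A at 2.5 μg/ml final for 3 days at 37 °C, 5% CO2. Proliferation measured by 6 h pulse with 0.5 μCi/well [3H]thymidine and beta counting.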

SMILES | inhibition at 10 µM [1] [%] | IC50 [1] [nM] | melting point [°C] | inhibition at 100 µM [1] [%] | inhibition at 1 µM [1] [%]
O=C(Nc1ccc(-n2nc(C(F)(F)F)cc2C(F)(F)F)cc1)C1=CCCC1 [Example 10, N-[4-[3,5-bis(trifluoromethyl)-1H-pyrazol-1-yl]phenyl]-1-cyclopentene-1-carboxamide] | 100 | 114 | 174 to 175 |  | 
Cc1cccc(C(=O)Nc2ccc(-n3nc(C(F)(F)F)cc3C(F)(F)F)cc2)c1 [Example 75, N-[4-[3,5-bis(trifluoromethyl)-1H-pyrazol-1-yl]phenyl]-3-methylbenzamide] |  | 368 | 137 to 139 | 100 | 
O=C(Nc1ccc(-n2nc(C(F)(F)F)cc2C(F)(F)F)cc1)c1ccc[nH]1 [Example 166, N-[4-[3,5-bis(trifluoromethyl)-1H-pyrazol-1-yl]phenyl]-1H-pyrrole-2-carboxamide] |  |  | > 240 |  | 11
N#Cc1cccc(C(=O)Nc2ccc(-n3nc(C(F)(F)F)cc3C(F)(F)F)nc2)c1 [Example 261, N-[2-[3,5-bis(trifluoromethyl)-1H-pyrazol-1-yl]-5-pyridinyl]-3-cyanobenzamide] |  |  | 206 to 208 |  | 37
COc1ccc(C(=O)Nc2ccc(-n3nc(C(F)(F)F)cc3C(F)(F)F)cc2)cc1Br [Example 221, N-[4-[3,5-bis(trifluoromethyl)-1H-pyrazol-1-yl]phenyl]-3-bromo-4-methoxybenzamide] | 98 | 411 | 197 to 198 |  | 
CC(C)=CC(=O)Nc1ccc(-n2nc(C(F)(F)F)cc2C(F)(F)F)cc1 [Example 102, N-[4-[3,5-bis(trifluoromethyl)-1H-pyrazol-1-yl]phenyl]-3-methyl-2-butenamide] |  | 503 | 150 to 152 | 100 | 
Cc1noc(C)c1C(=O)Nc1ccc(-n2nc(C(F)(F)F)cc2C(F)(F)F)c(Cl)c1 [Example 277, N-[4-[3,5-bis(trifluoromethyl)-1H-pyrazol-1-yl]-3-chlorophenyl]-3,5-dimethyl-4-isoxazolecarboxamide] |  | 1060 | 64 to 65 | 99 | 
O=C(Nc1ccc(-n2nc(C(F)(F)F)cc2C(F)(F)F)nc1)c1cc(F)c(F)cc1Cl [Example 262, N-[2-[3,5-bis(trifluoromethyl)-1H-pyrazol-1-yl]-5-pyridinyl]-2-chloro-4,5-difluorobenzamide] | 100 | 419 | 113 to 116 |  | 
O=C(Nc1ccc(-n2nc(C(F)(F)F)cc2C(F)(F)F)cc1)c1cc(F)ccc1F [Example 211, N-[4-[3,5-bis(trifluoromethyl)-1H-pyrazol-1-yl]phenyl]-2,5-difluorobenzamide] | 98 | 39 | 168 to 169 |  | 
CS(=O)(=O)c1ccc(C(=O)Nc2ccc(-n3nc(C(F)(F)F)cc3C(F)(F)F)cc2)c(Cl)c1 [Example 207, N-[4-[3,5-bis(trifluoromethyl)-1H-pyrazol-1-yl]phenyl]-2-chloro-4-(methylsulfonyl)benzamide] | 100 | 372 | 219 to 220 |  | 
O=C(Nc1ccc(-n2nc(C(F)(F)F)cc2C(F)(F)F)cc1-n1nc(C(F)(F)F)cc1C(F)(F)F)c1ccc(F)cc1F [Example 273, N-[2,4-bis[3,5-bis(trifluoromethyl)-1H-pyrazol-1-yl]phenyl]-2,4-difluorobenzamide] |  |  | 114 to 115 |  | 12
O=C(Nc1cccc(-n2nc(C(F)(F)F)cc2C(F)(F)F)c1)c1cc([N+](=O)[O-])ccc1Cl [Example 199, N-[3-[3,5-bis(trifluoromethyl)-1H-pyrazol-1-yl]phenyl]-2-chloro-5-nitrobenzamide] |  |  | 147 to 152 |  | 30
CC1(C(=O)Nc2ccc(-n3nc(C(F)(F)F)cc3C(F)(F)F)cc2)C=CCCC1 (stereo not shown) [Example 9, N-[4-[3,5-bis(trifluoromethyl)-1H-pyrazol-1-yl]phenyl]-1-methyl-2-cyclohexene-1-carboxamide] |  |  | 108 to 110 |  | 35
Cn1ncc(C(=O)Nc2ccc(-n3nc(C(F)(F)F)cc3C(F)(F)F)cc2)c1[N+](=O)[O-] [Example 83, N-[4-[3,5-bis(trifluoromethyl)-1H-pyrazol-1-yl]phenyl]-1-methyl-5-nitro-1H-pyrazole-4-carboxamide] | 99 | 71 | 214 to 216 |  | 
O=C(Nc1ccc(-n2nc(C(F)(F)F)cc2C(F)(F)F)cc1)c1ccc(C(F)(F)F)cc1 [Example 89, N-[4-[3,5-bis(trifluoromethyl)-1H-pyrazol-1-yl]phenyl]-4-(trifluoromethyl)benzamide] |  | 1230 | 170 to 172 | 99 | 
O=C(Nc1ccc(F)cc1)Nc1ccc(-n2nc(C(F)(F)F)cc2C(F)(F)F)cc1 [Example 32, N-[4-[3,5-bis(trifluoromethyl)-1H-pyrazol-1-yl]phenyl]-N′-(4-fluorophenyl)urea] |  | 8440 | 201 to 202 | 100 | 
CC(C)(C)OC(=O)N1CCCC1C(=O)Nc1ccc(-n2nc(C(F)(F)F)cc2C(F)(F)F)cc1 (stereo not shown) [Example 246, 1,1-Dimethylethyl 2-[[[4-[3,5-bis(trifluoromethyl)-1H-pyrazol-1-yl]phenyl]amino]carbonyl]-1-pyrrolidinecarboxylate] |  |  | 70 to 72 |  | 47
O=C(O)c1cccc(C(=O)Nc2ccc(-n3nc(C(F)(F)F)cc3C(F)(F)F)cc2)c1 [Example 159, 3-[[[4-[3,5-bis(trifluoromethyl)-1H-pyrazol-1-yl]phenyl]amino]carbonyl]benzoic acid] | 93 | 2930 | 244 to 245 |  | 
Cc1nnsc1C(=O)Nc1ccc(-n2nc(C(F)(F)F)cc2Br)cc1 [Example 335, N-(4-(5-bromo-3-(trifluoromethyl)-1H-pyrazol-1-yl)phenyl)-4-methyl-1,2,3-thiadiazole-5-carboxamide] |  | 103 | 145 to 147 |  | 
O=C(Nc1ccc(-n2nc(C(F)(F)F)cc2-c2cccs2)cc1)c1ccncc1F [Example 311, 3-fluoro-N-(4-(5-(2-thienyl)-3-(trifluoromethyl)-1H-pyrazol-1-yl)phenyl)isonicotinamide] |  | 323 | 153 to 155 |  | 
O=C(COc1ccccc1[N+](=O)[O-])Nc1ccc(-n2nc(C(F)(F)F)cc2C(F)(F)F)cc1 [Example 168, N-[4-[3,5-bis(trifluoromethyl)-1H-pyrazol-1-yl]phenyl]-2-(2-nitrophenoxy)acetamide] |  |  | 170 to 173 |  | 20
O=C(Nc1cccc(-n2nc(C(F)(F)F)cc2C(F)(F)F)c1)c1ccc(F)cc1F [Example 203, N-[3-[3,5-bis(trifluoromethyl)-1H-pyrazol-1-yl]phenyl]-2,4-difluorobenzamide] |  |  | 133 to 134 |  | 1
O=C(Nc1ccc(-n2nc(C(F)(F)F)cc2OC(F)F)cc1)c1cccnc1F [Example 324, N-(4-(5-(difluoromethoxy)-3-(trifluoromethyl)-1H-pyrazol-1-yl)phenyl)-2-fluoronicotinamide] |  | 89 | 149 to 150 |  | 
